Test results published in PubChem BioAssay AID330 (DTP/NCI, 2004).
Where “and” joins values, the source holds several entries; their conditions need not be identical. Identical values can stand only once. Inconclusive results and toxic doses are left out. Rule for the calls: active = survival T/C of 150% or more; inactive = T/C below 125% in these data. Peptide text beside a SMILES is read from it. * marks the point of attachment. Cbz = O=C(OCc1ccccc1)*; CH2Cl = ClC*

Tested on: P388 leukemia ip, CD2F1 mice, survival T/C
Experiment: NCI In Vivo Anticancer Drug Screen. Data for tumor model P388 Leukemia (intraperitoneal) in CD2F1 (CDF1) mice
Settings: endpoint: median survival time, higher = longer survival
Outline: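 Mice carrying the transplanted tumor received test compound or vehicle. Survival was recorded in each group, and the value is the treated-group measurement divided by that of the vehicle-treated control group.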

[1] = dose: 50.0 mg/kg/injection, schedule: Q01DX005 (ip), vehicle: saline with Tween-80
[2] = dose: 100.0 mg/kg/injection, schedule: Q01DX005 (ip), vehicle: saline with Tween-80
[3] = dose: 200.0 mg/kg/injection, schedule: Q01DX005 (ip), vehicle: saline with Tween-80
[4] = dose: 60.0 mg/kg/injection, schedule: Q01DX005 (ip), vehicle: saline with Tween-80
[5] = dose: 120.0 mg/kg/injection, schedule: Q01DX005 (ip), vehicle: saline with Tween-80
[6] = dose: 240.0 mg/kg/injection, schedule: Q01DX005 (ip), vehicle: saline with Tween-80
[7] = dose: 6.25 mg/kg/injection, schedule: Q01DX009 (ip), vehicle: saline
[8] = dose: 12.5 mg/kg/injection, schedule: Q01DX009 (ip), vehicle: saline with Tween-80
[9] = dose: 25.0 mg/kg/injection, schedule: Q01DX009 (ip), vehicle: saline with Tween-80
[10] = dose: 50.0 mg/kg/injection, schedule: Q01DX009 (ip), vehicle: saline with Tween-80
[11] = dose: 50.0 mg/kg/injection, schedule: Q01DX009 (ip), vehicle: saline
[12] = dose: 12.5 mg/kg/injection, schedule: Q01DX009 (ip), vehicle: saline
[13] = dose: 25.0 mg/kg/injection, schedule: Q01DX009 (ip), vehicle: saline
[14] = dose: 100.0 mg/kg/injection, schedule: Q01DX009 (ip), vehicle: saline
[15] = dose: 6.25 mg/kg/injection, schedule: Q01DX009 (ip), vehicle: saline with Tween-80
[16] = dose: 30.0 mg/kg/injection, schedule: Q01DX005 (ip), vehicle: saline with Tween-80

Measured: T/C

CCC(CC)(C(=O)Nc1ccc2c(c1)c(=O)c1ccccc1n2C)C(=O)Nc1ccc2c(c1)c(=O)c1ccccc1n2C
inactive: [1] 100 % of control | [2] 101 % of control | [3] 105 % of control

O=C(NCCN1CCOCC1)c1cc2ccccc2oc1=O
inactive: [4] 93 % of control | [5] 91 % of control | [6] 92 % of control

[CH3][Sn]([CH3])([Cl])[O][Sn]([CH3])([CH3])[Cl]
inactive: dose: 1.56 mg/kg/injection, schedule: Q01DX009 (ip), vehicle: saline 115 % of control | dose: 3.12 mg/kg/injection, schedule: Q01DX009 (ip), vehicle: saline 109 % of control and 118 % of control | [7] 118 % of control and 123 % of control | dose: 12.5 mg/kg/injection, schedule: Q04DX003 (ip), vehicle: saline 116 % of control | dose: 25.0 mg/kg/injection, schedule: Q04DX003 (ip), vehicle: saline 124 % of control | dose: 50.0 mg/kg/injection, schedule: Q04DX003 (ip), vehicle: saline 109 % of control

CCOC(=O)c1cnc[nH]c1=O
inactive: dose: 25.0 mg/kg/injection, schedule: Q04DX003 (ip), vehicle: saline with Tween-80 99 % of control | dose: 50.0 mg/kg/injection, schedule: Q04DX003 (ip), vehicle: saline with Tween-80 100 % of control | dose: 100.0 mg/kg/injection, schedule: Q04DX003 (ip), vehicle: saline with Tween-80 97 % of control | dose: 200.0 mg/kg/injection, schedule: Q04DX003 (ip), vehicle: saline with Tween-80 97 % of control

O=C(O)c1c[nH]c2cc(OCc3ccc(Cl)c(Cl)c3)ccc2c1=O
inactive: [8] 95 % of control | [9] 91 % of control | [10] 94 % of control | [11] 92 % of control

O=C1OC(c2ccc(Cl)c(Cl)c2)C(=O)C1=O (stereo not given)
inactive: dose: 3.75 mg/kg/injection, schedule: Q01DX005 (ip), vehicle: saline with Tween-80 86 % of control | dose: 7.5 mg/kg/injection, schedule: Q01DX005 (ip), vehicle: saline with Tween-80 91 % of control | dose: 15.0 mg/kg/injection, schedule: Q01DX005 (ip), vehicle: Klucel + Tween-80 92 % of control | dose: 15.0 mg/kg/injection, schedule: Q01DX005 (ip), vehicle: saline with Tween-80 102 % of control

CC(=O)N(O)c1ccccc1-c1ccccc1
inactive: [10] 103 % of control | dose: 100.0 mg/kg/injection, schedule: Q01DX009 (ip), vehicle: saline with Tween-80 99 % of control | dose: 200.0 mg/kg/injection, schedule: Q01DX009 (ip), vehicle: saline with Tween-80 97 % of control

CC(=O)Nc1cccc2c(C)cc(=O)[nH]c12
inactive: dose: 100.0 mg/kg/injection, schedule: Q01DX001 (ip), vehicle: Klucel (hydroxypropylcellulose) (HPC) 91 % of control | dose: 200.0 mg/kg/injection, schedule: Q01DX001 (ip), vehicle: Klucel (hydroxypropylcellulose) (HPC) 97 % of control | dose: 400.0 mg/kg/injection, schedule: Q01DX001 (ip), vehicle: Klucel (hydroxypropylcellulose) (HPC) 98 % of control

O=C(O)Cc1c(-c2ccccc2)nc(=S)[nH]c1-c1[nH]c(=S)nc(-c2ccccc2)c1CC(=O)O
inactive: dose: 60.0 mg/kg/injection, schedule: Q01DX005 (ip), vehicle: saline 111 % of control | dose: 120.0 mg/kg/injection, schedule: Q01DX005 (ip), vehicle: saline 106 % of control | dose: 240.0 mg/kg/injection, schedule: Q01DX005 (ip), vehicle: saline 96 % of control

CC(C)CC(NC(=O)OCc1ccccc1)C(=O)NC(Cc1ccccc1)C(=O)CCl (stereo not drawn) (Cbz-Leu-Phe-CH2Cl; configuration not given here)
inactive: [7] 107 % of control | [12] 106 % of control | [13] 111 % of control | [11] 113 % of control | [14] 120 % of control

O=[N+]([O-])c1ccc(Sc2ncccn2)c([N+](=O)[O-])c1
inactive: dose: 50.0 mg/kg/injection, schedule: Q01DX009 (ip), vehicle: suspension in saline 103 % of control | dose: 100.0 mg/kg/injection, schedule: Q01DX009 (ip), vehicle: suspension in saline 88 % of control | dose: 200.0 mg/kg/injection, schedule: Q01DX009 (ip), vehicle: suspension in saline 91 % of control

O=C(O)CC12CCC(CC1)OC2=O
inactive: [11] 100 % of control | [14] 106 % of control | dose: 200.0 mg/kg/injection, schedule: Q01DX009 (ip), vehicle: saline 97 % of control

ONC1CC(NO)CC(NO)C1 (stereo not given)
inactive: dose: 100.0 mg/kg/injection, schedule: Q01DX001 (ip), vehicle: saline 117 % of control | dose: 200.0 mg/kg/injection, schedule: Q01DX001 (ip), vehicle: saline 110 % of control

COc1ccc(S(=O)(=O)N/N=C/C(=O)OCOC(=O)C(C)(C)C)cc1
inactive: dose: 5.0 mg/kg/injection, schedule: Q01DX005 (ip), vehicle: other 111 % of control | dose: 5.0 mg/kg/injection, schedule: Q01DX005 (ip), vehicle: saline + Tween-80 + alcohol 116 % of control | dose: 10.0 mg/kg/injection, schedule: Q01DX005 (ip), vehicle: saline + Tween-80 + alcohol 111 % of control | dose: 12.5 mg/kg/injection, schedule: Q01DX005 (ip), vehicle: saline + Tween-80 + alcohol 119 % of control | dose: 25.0 mg/kg/injection, schedule: Q01DX005 (ip), vehicle: saline + Tween-80 + alcohol 111 % of control

CC(=O)OC1CCN(C)CC1CCl (stereo not given)
inactive: [12] 110 % of control | [13] 105 % of control | [11] 105 % of control and 114 % of control

O=C(c1ccccc1)c1ccccc1NCC(O)COc1ccc(Cl)cc1 (stereo not given)
inactive: [4] 88 % of control and 96 % of control | [5] 100 % of control | [6] 99 % of control

CC1OC(CC(=O)O)CC2=C1C(=O)c1c(O)cccc1C2=O (stereo not given)
inactive: dose: 3.13 mg/kg/injection, schedule: Q01DX009 (ip), vehicle: saline with Tween-80 94 % of control | [15] 115 % of control and 117 % of control | [8] 110 % of control and 115 % of control | [9] 101 % of control and 114 % of control

O=C1c2ccccc2-c2ccc(NC(=O)C34CC5CC(CC(C5)C3)C4)cc21
inactive: dose: 50.0 mg/kg/injection, schedule: Q01DX005 (ip), vehicle: Klucel (hydroxypropylcellulose) (HPC) 86 % of control | dose: 100.0 mg/kg/injection, schedule: Q01DX005 (ip), vehicle: Klucel (hydroxypropylcellulose) (HPC) 87 % of control | dose: 200.0 mg/kg/injection, schedule: Q01DX005 (ip), vehicle: Klucel (hydroxypropylcellulose) (HPC) 90 % of control

CCOC(=O)Nc1cccc([N+](=O)[O-])c1
inactive: dose: 100.0 mg/kg/injection, schedule: Q04DX003 (ip), vehicle: other 95 % of control | dose: 200.0 mg/kg/injection, schedule: Q04DX003 (ip), vehicle: other 95 % of control | dose: 400.0 mg/kg/injection, schedule: Q04DX003 (ip), vehicle: other 100 % of control

S=C(/N=N/c1[nH]c2ccccc2c1NNC(=S)NC12CC3CC(CC(C3)C1)C2)NC12CC3CC(CC(C3)C1)C2
inactive: [16] 96 % of control | [4] 96 % of control | [5] 87 % of control | [6] 90 % of control

CC(C)NC(=O)OCc1c(COC(=O)NC(C)C)c2cccn2c2c1cnn2-c1ccccc1
inactive: [16] 87 % of control | [4] 89 % of control | [5] 89 % of control and 91 % of control | [6] 96 % of control

OC(c1cc2cc(Cl)c(Cl)cc2c2cc(C(F)(F)F)ccc12)C1CCCCN1 (stereo not given)
inactive: [15] 109 % of control | [8] 102 % of control

CO/C(C)=C1/C(=O)O/C(=C/Nc2ccccc2)C1=O
inactive: [1] 107 % of control | [2] 107 % of control | [3] 96 % of control
